Consider one compound from patent publication US20190262357A1, “PREVENTATIVE OR THERAPEUTIC AGENT FOR PULMONARY HY[…] CRUDE DRUG COMPONENT” (TOHOKU UNIVERSITY, priority 2016, published 2019).

Molecules are shown by their SMILES.

This assay deals with pulmonary artery smooth muscle cells derived from patients with idiopathic pulmonary arterial hypertension (IPAH-PASMCs). As to the kind of experiment: Suppression of proliferation of IPAH-PASMCs (MTT assay). The class given is cell-based, human. The conditions noted are these: 0.001-5 μM celastrol, 48 hours. The method, then:
The ability of celastrol to suppress the proliferation of pulmonary artery smooth muscle cells from patients with pulmonary hypertension (IPAH-PASMCs) was assessed. Specifically, first, on day −1, 66 μl each of pulmonary artery smooth muscle cells derived from patients with idiopathic pulmonary arterial hypertension (IPAH-PASMCs) suspended in a 10% FBS medium (DMEM supplemented with 10% FBS) were seeded in a 96-well plate at 50,000 cells/ml. 24 Hours after the cell seeding (the time point was defined as day 0), 33 μl each of 0.003 μM, 0.03 μM, 0.3 μM, 3 μM, and 15 μM solutions of celastrol in 10% FBS containing 1% DMSO were added to the wells so that the final concentrations were 0.001 μM, 0.01 μM, 0.1 μM, 1 μM, and 5 μM, respectively. As a control, 33 μl of 10% FBS containing 1% DMSO was added in place of celastrol. On day 0 (immediately before the addition of celastrol), a cell viability was confirmed by performing MTT assay using CellTiter 96 (trademark) AQueous One Solution Cell Proliferation Assay (promega). Further, on day 2, i.e., 48 hours after the addition of celastrol, the MTT assay was performed again to observe a change in cell viability. Thus, a cell proliferation-suppressing effect was assessed.
On the technique in general: Formazan colour is commonly taken as a measure of viable cells.

As to `CC1=C(O)C(=O)C=C2C1=CC=C1[C@@]2(C)CC[C@@]2(C)[C@@H]3C[C@](C)(C(=O)O)CC[C@]3(C)CC[C@]12C` [celastrol, (2R,4aS,6aS,12bR,14aS,14bR)-10-hydroxy-2,4a,6a,9,12b,14a-hexamethyl-11-oxo-1,2,3,4,4a,5,6,6a,11,12b,13,14,14a,14b-tetradecahydropicene-2-carboxylic acid], the cell proliferation-suppressing effect result is “a cell proliferation-suppressing effect on pulmonary artery smooth muscle cells derived from patients with idiopathic pulmonary arterial hypertension was obtained”.
